This is an account of results in patent US6638531B1, “Antimicrobial peptides” (priority 1998, dated 2003).

In brackets after ≈: the same amount, converted by molar mass. A value given as a limit tells only on which side of the number the result lay.

One assay concerns Candida parapsilosis. Briefly: microbe, parasite or virus in culture. The following applies: Lodderomyces parapsilosis, pH 7, read-out: IC50 values (50% of the inoculum is killed). How it is done:
(§1) 5*10^6 cells of Candida pseudotropicalis, Candida albicans 10231, Cryptococcus neoformans, Candida krusei, Candida parapsilosis, Candida glabrata and Candida albicans 32354 and an ergosterol-deficient mutant thereof were incubated for one and a half hours at 37° C. in the presence of a dilution series of a peptide according to the invention or amphotericin B in 1 mM potassium phosphate buffer, pH 7.0. The viability was determined by plating out. Used as positive control was synthetic PGLa (“Protein beginning with Glycine and ending with Leucin-amide”, with the amino acid sequence […]-amide).

The subject of another assay is Candida albicans 32354. Briefly: microbe, parasite or virus in culture. The following applies: Candida albicans, 32354, pH 7, read-out: IC50 values (50% of the inoculum is killed). Here is the method:
as §1

In another assay the test system is Cryptococcus neoformans. The experiment in a line: microbe, parasite or virus in culture. The following applies: Cryptococcus neoformans, pH 7, read-out: IC50 values (50% of the inoculum is killed). Here is the method:
as §1

The next assay deals with Candida albicans 10231. The experiment in a line: microbe, parasite or virus in culture. To be noted: Candida albicans, 10231, pH 7, read-out: IC50 values (50% of the inoculum is killed). How it is done:
as §1

The subject of another assay is Candida krusei. Briefly: microbe, parasite or virus in culture. To be noted: Pichia kudriavzevii, pH 7, read-out: IC50 values (50% of the inoculum is killed). How it is done: as §1
The test system of the next assay is Candida glabrata. The experiment in a line: microbe, parasite or virus in culture. The following applies: Nakaseomyces glabratus, pH 7, read-out: IC50 values (50% of the inoculum is killed). Here is the method:
as §1

In another assay the test system is Candida pseudotropicalis. Briefly: microbe, parasite or virus in culture. To be noted: Kluyveromyces marxianus, pH 7, read-out: IC50 values (50% of the inoculum is killed). How it is done: as §1
The subject of assay [1] is Candida albicans 32354, ergosterol-deficient mutant. Briefly: Killing of yeasts. The format is cell-based. To be noted: pH 7, read-out: IC50 values (50% of the inoculum is killed). How it is done:
as §1

Regarding `C[C@@H]1[C@H](O)[C@@H](C)/C=C/C=C/C=C/C=C/C=C/C=C/C=C/[C@H](O[C@@H]2O[C@H](C)[C@@H](O)[C@H](N)[C@@H]2O)C[C@@H]2O[C@](O)(C[C@@H](O)C[C@@H](O)[C@H](O)CC[C@@H](O)C[C@@H](O)CC(=O)O[C@H]1C)C[C@H](O)[C@H]2C(=O)O` [amphotericin B], the IC50 was 6 µg/mL (≈ 6.49 µM) in the assay on Candida parapsilosis; 2 µg/mL (≈ 2.16 µM) with Candida albicans 32354; 1 µg/mL (≈ 1.08 µM) in the assay with Cryptococcus neoformans; 1 µg/mL (≈ 1.08 µM) in the assay on Candida albicans 10231; more than 70 µg/mL with Candida krusei; 2 µg/mL (≈ 2.16 µM) in the assay on Candida glabrata. Besides, the figures for the IC50 (in the assay on Candida pseudotropicalis; in assay [1]) were 8 µg/mL (≈ 8.66 µM) and more than 70 µg/mL, respectively.
